According to patent publication US20250282827A1, “LIPIDATED POLYMYXIN ANALOGUES” (priority 2021, published 2025):
Values after ≈ are worked out from the molar mass of the structure shown. Where two headings read alike, the source gives them in different places. Positions of bridges follow the written chain, without caps; N, C: chain ends. Non-standard residues stand in square brackets, D forms with d. Residues, ends and D or L forms follow the SMILES beside them. *: point of attachment. Ethyl(2-OBz) = O=C(OCC*)c1ccccc1; Dab = NCC[C@H](N)C(=O)O; X3 = CCCC(C)C(=O)OCC*

Assays:
P. aeruginosa ATCC 27853 = assay type: cell-based, Pseudomonas aeruginosa; details: median of triplicate
Source text: (§1) All 81 compounds prepared in Examples 2 and 3 underwent screening against a panel of Gram-negative bacterium to assess their ability to inhibit bacterial growth. […] The median value is presented.

[1] = test system: kidney organoids derived from human induced pluripotent stem cells; experiment: Nephrotoxicity on kidney organoids, renal tubule deterioration by bright field imaging; assay type: cell-based; details: scored after 48 h; further: key: 1 = unaffected; 2 = mild deterioration; 3 = severe deterioration; 4 = complete deterioration
Method: Selected polymyxin analogues were evaluated for cytotoxicity in physiologically relevant human kidney tissue, using kidney organoids derived from human induced pluripotent stem cells (Soo et al. 2018). Monolipidated analogues 29, 31, 33, containing a propyl, decyl or phenyl lipid, dilapidated compounds, 35, 38, 39, containing a propyl, tert-butyl or phenyl, lipid, respectively and the N-capped, di-lipidated (phenyl) 49 were selected.
The control compound polymyxin B and the seven ClipPA analogues were tested by adding a range of concentrations (based on Gallado-Godoy et al. 2016) to the organoids at day 12 of the protocol, shown previously to correspond to optimal maturity of the organoid tissues.
Toxicity was scored after 48 h for signs of renal tubule deterioration visible by bright field imaging (not shown).

E. coli ATCC MS8345 = assay type: cell-based, Escherichia coli; details: colistin-resistant strain; median of triplicate
Source text: as §1
Expansion of the polymyxin macrocycle by substituting […]) offered little advantage in antimicrobial activity but was generally well tolerated although for A. baumanni and P. aeruginosa this was detrimental.

K. pneumoniae ATCC 33495 = assay type: cell-based, Klebsiella pneumoniae; details: median of triplicate
Source text: as §1

[2] = test system: K. pneumoniae ATCC 700603; assay type: cell-based, Klebsiella pneumoniae; details: median of triplicate
Source text: as §1

[3] = test system: K. pneumoniae ATCC MS6671; assay type: cell-based, Klebsiella pneumoniae; details: median of triplicate
Source text: as §1

E. coli ATCC 25922 = assay type: cell-based, Escherichia coli; details: median of triplicate
Source text: as §1

A. baumannii ATCC 19606 = assay type: cell-based, Acinetobacter baumannii; details: median of triplicate
Source text: as §1

Vero cell line = experiment: Cellular toxicity against Vero cell line; assay type: cell-based; details: Vero cell line; ± standard error
Method: (§2) FIG. 6 is a graph showing cell survival as a function of the indicated compound concentration. Data are representative of triplicate experiments.
(§3) To evaluate if the ClipPA modifications introduced any new toxicity, inhibitory concentrations against Vero and HaCaT cell lines were determined. […] The standard error for each measurement is shown.

HaCaT cell line = experiment: Cellular toxicity against HaCaT cell line; assay type: cell-based; details: HaCaT cell line; ± standard error
Method: as §2, §3

[4] = test system: carbapenem-resistant Pseudomonas aeruginosa (CRPA); assay type: cell-based
Source text: (§4) Given the promising antimicrobial activity and low toxicity associated with compounds 29, 35 and to a lesser extent 38, these compounds were progressed to a further round of phenotypic antimicrobial susceptibility testing using a panel of clinically relevant multidrug resistant Gram-negative pathogens. This panel included isolates phenotypically characterised as carbapenem-resistant Enterobacteriacea (CRE), extended spectrum β-lactamase (ESBL) producing Enterobacteriacea, colistin-resistant E. coli, carbapenem-resistant Acinetobacter baumannii (CRAB) or carbapenem-resistant Pseudomonas aeruginosa (CRPA). These isolates were chosen because each was resistant to multiple different families of clinically used antibiotics making treatment options limited and importantly, each of these pathogen types are recognised as “Priority 1: CRITICAL” on the World Health Organization (WHO) priority pathogen list for R&D of new antibiotics. Antimicrobial activity against any of these pathogens would therefore be of clinical importance. […] However, we note that many of the compounds tested in Example 4 did show good activity against colistin-resistant E. coli.

[5] = test system: carbapenem-resistant Enterobacteriacea (CRE); assay type: cell-based
Source text: as §4

[6] = test system: extended spectrum β-lactamase (ESBL) producing Enterobacteriacea; assay type: cell-based
Source text: as §4

[7] = test system: carbapenem-resistant Acinetobacter baumannii (CRAB); assay type: cell-based; details: A. baumannii, CRAB, OXA-23
Source text: as §4

[8] = test system: colistin-resistant E. coli; assay type: cell-based, Escherichia coli
Source text: as §4

Compound	MIC P. aeruginosa ATCC 27853 (P. aeruginosa ATCC 27853) [µg/mL]	Score (nephrotoxicity on kidney organoids) ([1]; 100 μM)	Score (nephrotoxicity on kidney organoids) ([1]; 300 μM)	Score (nephrotoxicity on kidney organoids) ([1]; 1 mM)	MIC E. coli ATCC MS8345 (E. coli ATCC MS8345) [µg/mL]	MIC K. pneumoniae ATCC 33495 (K. pneumoniae ATCC 33495) [µg/mL]	MIC K. pneumoniae ATCC 700603 [2] [µg/mL]	MIC K. pneumoniae ATCC MS6671 [3] [µg/mL]	MIC E. coli ATCC 25922 (E. coli ATCC 25922) [µg/mL]	MIC A. baumannii ATCC 19606 (A. baumannii ATCC 19606) [µg/mL]	IC50 Vero (Vero cell line) [µg/mL]	IC50 HaCaT (HaCaT cell line) [µg/mL]	further results
CC(=O)N[C@@H](CSCCOC(=O)c1ccccc1)C(=O)N[C@@H](CCN)C(=O)N[C@H](C(=O)N[C@@H](CCN)C(=O)N[C@H]1CCNC(=O)[C@H]([C@@H](C)O)NC(=O)[C@H](CCN)NC(=O)[C@H](CCN)NC(=O)[C@H](CSCCOC(=O)c2ccccc2)NC(=O)[C@@H](Cc2ccccc2)NC(=O)[C@H](CCN)NC1=O)[C@@H](C)O [Compound 49] (Ac-C(Ethyl(2-OBz))[Dab]T[Dab][Dab][Dab][dF]C(Ethyl(2-OBz))[Dab][Dab]T; lactam 5-C)	1 (≈ 0.669 µM)	3	3	4	16 (≈ 10.7 µM)	0.5 (≈ 0.335 µM)	0.5 (≈ 0.335 µM)	>32	0.5 (≈ 0.335 µM)	1 to 2	–	–	–
CCCC(C)C(=O)OCCSC[C@@H](N)C(=O)N[C@H](C(=O)N[C@@H](CCN)C(=O)N[C@H]1CCNC(=O)[C@H]([C@@H](C)O)NC(=O)[C@H](CCN)NC(=O)[C@H](CCN)NC(=O)[C@H](CC(C)C)NC(=O)[C@@H](Cc2ccccc2)NC(=O)[C@H](CCN)NC1=O)[C@@H](C)O (stereo partly drawn) [Compound 94] (H-[dC](X3)T[Dab][Dab][Dab][dF]L[Dab][Dab]T; lactam 4-C)	2 (≈ 1.65 µM)	1	2	3	16 (≈ 13.2 µM)	1 (≈ 0.827 µM)	2 (≈ 1.65 µM)	>32	1 (≈ 0.827 µM)	4 (≈ 3.31 µM)	–	–	–
Colistin [reference compound]	–	–	–	–	–	–	–	–	–	–	949.7 ± 75.35	2578 ± 11.41	–
Polymyxin B [PMB, reference compound]	0.25	2	3	4	4	0.5	0.25	>32	0.25	0.5	939.0 ± 63.32	1998 ± 27.74	MIC ([4]; P. aeruginosa, CRPA, VIM-2): 8 mg/L; susceptibility of CRPA in words ([4]; in words): resistant; MIC ([5]; E. cloacae, IMP-4): 1 mg/L; MIC ([5]; E. coli, NDM-1): 1 mg/L; MIC ([5]; K. pneumoniae, KPC-2): 2 mg/L; MIC ([5]; K. pneumoniae, NDM-5): 2 mg/L; MIC ([6]; E. coli, CTX-M-15): 1 mg/L; MIC ([6]; S. enterica, CTX-M-55): 2 mg/L; MIC [7]: 1 mg/L; MIC ([8]; E. coli, CR (colistin-resistant), MCR-1): 8 mg/L; susceptibility of colistin-resistant E. coli in words ([8]; in words): resistant
